Data from patent US6890954B1, “Uses of 2-bromopalmitate in the treatment of autoimmune disease” (priority 1999, dated 2005).

Tests used:
Format in all cases: cell-based
Fyn(16)-eGFP = assay: Localization of Fyn(16)-eGFP in COS-1 cells (fluorescence microscopy, P100/S100 fractionation)
Method: COS-1 cells were transfected with a Fyn(16)-eGFP construct (12) and seeded onto 25-mm glass coverslips 2 days prior to the experiment. Cells were treated overnight with or without 2 bromopalmitate as described above. Plates were washed with PBS and coverslips were mounted onto glass slides in PBS and observed with a 40× and 100×oil immersion lens on a Zeiss Axiophot 2 microscope and photographed with Kodak TMAX 400.
To investigate the effect of 2-bromopalmitate on the intracellular localization of Fyn more precisely, COS-1 cells expressing a Fyn(16)-eGFP construct were examined by immunofluorescence. This construct contains the first 16 amino acids of Fyn fused in frame to eGFP; the chimera is targeted to the plasma membrane and detergent resistant microdomains (12). Cells were cultured with no treatment, with 2-bromopalmitate or with 2-hydroxymyristate, a known myristoylation inhibitor (40,41), as described above, and were examined live by fluorescence microscopy.
Analysis of the subcellular localization of Fyn(16)-eGFP in the presence of 2-bromopalmitate and 2-hydroxymyristate was performed as described above for steady-state Fyn. As depicted in FIG. 2B, in the absence of treatment, 80% of Fyn(16)-eGFP Fyn was membrane bound, whereas in cells treated with 2-bromopalmitate and 2-hydroxymyristate, 65% and 78% of Fyn(16)-eGFP were cytosolic, respectively.

Fyn [1] = target: T1, Fyn (Homo sapiens, UniProt P06241); assay: Fyn fatty acylation (IC13/IC16 incorporation) in transfected COS-1 cells; settings: for effect of palmitate analog on Fyn fatty acylation: COS-1 cells, data not shown
T1 construct: expressed in transfected cells; host or cells: COS-1
Method: The syntheses of 13-[^125I]-iodotridecanoic acid (IC13)or 16-[^125I]-iodohexanoic acid (IC16) were carried out as described previously (39). Cell labeling was carried out as described (12,13) with modifications. Briefly, each 60 mm plate of Fyn transfected COS-1 cells was incubated O/N in DMEM containing 2.5% FBS, 0.5% defatted BSA (Sigma) with or without 100 μM 2-bromopalmitate or 50 μM polyunsaturated fatty acid. Prior to labeling, the cells were incubated for 1 hr with 1 ml of DMEM containing 2% dialyzed FBS, then labeled for 4 hours with 25-50 μCi IC13 or IC16 in DMEM containing 2% dialyzed FBS, 0.5% defatted BSA with or without 2-bromopalmitate or polyunsaturated fatty acid. Labeled cells were washed three times with cold STE (100 mM NaCl, 10 mM Tris pH 7.4, 1 mM EDTA) and lysed in 0.6 ml of cold RIPA buffer containing protease inhibitors (10 μg/ml each of benzamidine, AEBSF, TPCK and TLCK, 1.5 μg/ml each of Leupeptin, Pepstatin A and Aprotinin). Lysates were clarified at 100,000×g for 15 min at 4° C. in a Beckman TL-100 ultracentrifuge. Lysates were immunoprecipitated with rabbit anti-Fyn antibody and protein A-agarose. Immunoprecipitates were washed three times with cold RIPA buffer and suspended in 1× sample buffer containing 100 mM dithiothreitol and subjected to SDS-PAGE. Gels were dried between cellophane and analyzed by phosphorimaging after 12-36 hours exposure. Experiments in Jurkat T cells were carried out according to the above protocol using 2×10^7 cells per experiment, and reducing the incubation time with 2-bromopalmitate to 3-4 hours.
A number of palmitic acid analogs were screened for their ability to inhibit Fyn palmitoylation. COS-1 cells were transfected with cDNA encoding Fyn. Three days after transfection, the cells were labeled with either [^35S]-methionine, 13-[^125I]-iodotridecanoic acid (IC13), an iodinated myristate analog, or 16-[^125I]-iodohexanoic acid (IC16), an iodinated palmitic acid analog (39), in the presence or absence of nonradioactive palmitate analogs. Cells were lysed, immunoprecipitated with anti-Fyn antibody, and analyzed by SDS-PAGE and phosphorimaging. […] When normalized for total protein levels, 70% of Fyn myristoylation and over 90% of Fyn palmitoylation was inhibited in the presence of 2-bromopalmitate. Treatment of cells with other analogs, including 2-hydroxypalmitate, palmitoleic acid and 16-hydroxypalmitate had no effect (data not shown).
To test this hypothesis, Fyn transfected COS-1 cells were incubated O/N with or without 50 μM arachidonic acid (20:4) or eicosapentaenoic acid (20:5), then labeled with IC13 or IC16. Total protein levels were monitored by immunoblotting aliquots of each sample with anti-Fyn antibody (FIG. 8A, lower panel).

Fyn [2] = assay: DRM localization of Fyn in PUFA-treated COS-1 cells (sucrose gradient); settings: COS-1, 50 μM PUFA; untreated 30%
Method: For isolation of detergent resistant microdomains in PUFA-treated COS-1 cells, a confluent 100 mm plate of COS-1 cells transiently transfected with Fyn cDNA was washed with S-IE and subjected to the same procedure described above. Fractions were analyzed for the presence of Fyn by immunoblotting.
Whether 20:4 and 20:5 inhibited localization of Fyn to detergent resistant microdomains in COS-1 cells was examined next. Cells were treated with or without polyunsaturated fatty acids as described above and layered on the bottom of a sucrose gradient as described above. Fractions were collected and analyzed by immunoblotting with anti-Fyn antibody.

T1 sequence (P06241 whole entry, species assumed): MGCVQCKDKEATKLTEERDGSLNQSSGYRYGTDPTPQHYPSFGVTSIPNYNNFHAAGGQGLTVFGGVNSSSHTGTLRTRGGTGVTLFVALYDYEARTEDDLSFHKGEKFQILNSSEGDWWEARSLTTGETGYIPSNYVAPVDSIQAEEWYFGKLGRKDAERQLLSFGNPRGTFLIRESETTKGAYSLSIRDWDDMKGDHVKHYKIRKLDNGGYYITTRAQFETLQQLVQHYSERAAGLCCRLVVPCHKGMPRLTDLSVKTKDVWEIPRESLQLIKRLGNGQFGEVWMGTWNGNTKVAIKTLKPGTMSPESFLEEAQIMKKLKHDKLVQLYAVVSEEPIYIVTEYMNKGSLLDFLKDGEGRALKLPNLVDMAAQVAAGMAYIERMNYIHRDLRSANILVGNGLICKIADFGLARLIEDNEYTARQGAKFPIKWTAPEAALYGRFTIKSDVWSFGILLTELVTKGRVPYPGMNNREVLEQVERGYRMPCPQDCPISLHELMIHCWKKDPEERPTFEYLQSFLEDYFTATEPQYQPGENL

| SMILES | effect of palmitate analog on Fyn fatty acylation (Fyn [1]) | inhibition of incorporation of IC16 into Fyn (palmitoylation) (Fyn [1]; COS-1, 50 μM PUFA overnight) | Fyn found in detergent resistant microdomains (Fyn [2]) | also measured |
| --- | --- | --- | --- | --- |
| CCCCCCCCCCCCC(O)C(=O)O (stereo not shown) [2-hydroxymyristate, reference compound] | – | – | – | Fyn(16)-eGFP cytosolic (Fyn(16)-eGFP; COS-1, 100 μM overnight, P100/S100, untreated 80% membrane bound): 78%; Fyn(16)-eGFP distribution by fluorescence microscopy (Fyn(16)-eGFP; COS-1 live cells, 100 μM overnight): reduced plasma membrane staining |
| O=C(O)CCCCCCCCCCCCCCCO [16-hydroxypalmitate] | no effect | – | – | – |

Continued, in another order:

| effect of palmitate analog on Fyn fatty acylation (Fyn [1]) | inhibition of incorporation of IC16 into Fyn (palmitoylation) (Fyn [1]; COS-1, 50 μM PUFA overnight) | SMILES | Fyn found in detergent resistant microdomains (Fyn [2]) | also measured |
| --- | --- | --- | --- | --- |
| no effect | – | CCCCCCCCCCCCCCC(O)C(=O)O (stereo not shown) [2-hydroxypalmitate] | – | – |
| – | 55% | CCCCC/C=C\C/C=C\C/C=C\C/C=C\CCCC(=O)O [arachidonic acid] | 16% | effect on Fyn myristoylation (IC13 incorporation) (Fyn [1]; COS-1, 50 μM PUFA overnight): almost no effect |
| – | 65% | CC/C=C\C/C=C\C/C=C\C/C=C\C/C=C\CCCC(=O)O [eicosapentaenoic acid] | 5.3% | – |
| no effect | – | CCCCCC/C=C\CCCCCCCC(=O)O [palmitoleic acid] | – | – |
